Laboratory results published in the NIST ThermoML archive (doi:10.1021/je200710t).

How the values were obtained:
[1] = for mass density / viscosity: 101.33 kPa, Liquid; for Glass transition temperature: DTA
[2] = refractive index (Na D-line) (dimensionless); conditions: 101.33 kPa, Liquid, Standard Abbe refractometry

N#CCCn1cc[n+](CCO)c1.[Cl-] [1-(2-cyanoethyl)-3-(2-hydroxyethyl)-1H-imidazolium chloride]
Conditions | mass density, [1] [kg/m3] | refractive index, [2] | viscosity, [1] [mPa·s]
293.15 K | 1257.9 | 1.54996 | –
298.15 K | 1255.05 | 1.54847 | –
303.15 K | 1252.2 | 1.54699 | 62813
308.15 K | 1249.38 | 1.54554 | 33772
313.15 K | 1246.58 | 1.54412 | 19046
318.15 K | 1243.81 | 1.54277 | 11119
323.15 K | 1241.05 | 1.54133 | 6721
328.15 K | 1238.32 | 1.53985 | 4213
333.15 K | 1235.59 | 1.53847 | 2708
338.15 K | 1232.86 | – | 1817
343.15 K | 1230.13 | – | 1245
348.15 K | 1227.41 | – | 873
353.15 K | 1224.57 | – | 632

Conditions | Glass transition temperature [°C]
[1] | 14.50

N#CCCn1cc[n+](Cc2ccccc2)c1.[Cl-] [1-(2-cyanoethyl)-3-(phenylmethyl)-1H-imidazolium chloride]
[1]
Conditions | mass density [kg/m3] | viscosity [mPa·s]
298.15 K | 1202.67 | –
303.15 K | 1200.28 | –
308.15 K | 1197.33 | –
313.15 K | 1194.37 | –
318.15 K | 1191.42 | –
323.15 K | 1188.5 | 95152
328.15 K | 1185.59 | 42665
333.15 K | 1182.69 | 20463
338.15 K | 1179.8 | 10434
343.15 K | 1176.88 | 5635
348.15 K | 1174.01 | 3190
353.15 K | 1171.16 | 1958

Conditions | Glass transition temperature [°C]
[1] | 16.21

C=CC[n+]1ccn(CCC#N)c1.[Cl-] [3-allyl-1-(2-cyanoethyl)-1H-imidazolium chloride]
Conditions | mass density, [1] [kg/m3] | refractive index, [2] | viscosity, [1] [mPa·s]
293.15 K | 1173.79 | 1.54731 | –
298.15 K | 1170.79 | 1.54603 | 17544
303.15 K | 1167.79 | 1.54478 | 10294
308.15 K | 1164.8 | 1.54339 | 5761
313.15 K | 1161.84 | 1.54208 | 3316
318.15 K | 1158.88 | 1.54072 | 2046
323.15 K | 1155.93 | 1.53945 | 1314
328.15 K | 1152.91 | 1.53813 | 873
333.15 K | 1150.01 | 1.53682 | 599
338.15 K | 1147.11 | – | 423
343.15 K | 1144.22 | – | 306
348.15 K | 1141.32 | – | 226
353.15 K | 1138.42 | – | 171

Conditions | Glass transition temperature [°C]
[1] | -1.48

CCCC[n+]1ccn(CCC#N)c1.[Cl-] [3-butyl-1-(2-cyanoethyl)-1H-imidazol-3-ium chloride]
Conditions | mass density, [1] [kg/m3] | refractive index, [2] | viscosity, [1] [mPa·s]
293.15 K | 1132.55 | 1.52575 | 4707
298.15 K | 1129.35 | 1.5243 | 2637
303.15 K | 1126.15 | 1.52287 | 1612
308.15 K | 1122.93 | 1.52139 | 1020
313.15 K | 1119.66 | 1.51992 | 668
318.15 K | 1116.49 | 1.51846 | 451
323.15 K | 1113.34 | 1.51707 | 314
328.15 K | 1110.18 | 1.5156 | 224
333.15 K | 1107.03 | 1.51418 | 164
338.15 K | 1103.87 | – | 123
343.15 K | 1100.72 | – | 94
348.15 K | 1097.57 | – | 73
353.15 K | 1094.44 | – | 58

Conditions | Glass transition temperature [°C]
[1] | -5.23
